Data published in PMC8470881, “Membrane Interactions of Latarcins: Antimicrobial Peptides from Spider Venom” (International Journal of Molecular Sciences, 2021).
Where “and” joins values, the source holds several entries; their conditions need not be identical. Equal values may be shown once.

Key:
[1] = Solid-state 15N-NMR (helix alignment in membrane); type: physicochemical; conditions: DMPC/DMPG (7/3); for NMR: orientational state of the helix: P/L = 1:100, oriented samples, solid-state 15N-NMR, 308 K
Protocol: While OCD provides a rough picture of the peptide alignment, the helix tilt angle can be measured rather precisely by solid-state NMR using the same type of oriented membrane sample. […] If the peptides are not helical, then the orientation cannot be determined from these ^15N-NMR spectra (which is why CD/OCD need to be performed first), but other information may be available. Oriented NMR samples were prepared at a P/L of 1/100 in DMPC/DMPG (7/3), as for CD/OCD. The ^15N-NMR spectra of all latarcins are summarized in Figure 7, along with the corresponding ^31P-NMR spectra of the phospholipid component. […] This conclusion is supported by the vesicle leakage data above.
Ltc2a, with a chemical shift of 131 ppm, on the other hand, is distinctly tilted in the membrane, as was also observed in the OCD experiments. […] Ltc3a, with a chemical shift of 93 ppm, is tilted only slightly by 10–20°. […] Given that OCD had shown distinct signs of aggregation into β-sheets, we can conclude that Ltc6a binds to the membrane and perturbs the lipid bilayer, but it is not possible to determine the molecular alignment of Ltc6a when it has most likely formed aggregates.
Macroscopically oriented NMR samples were prepared by co-dissolving appropriate amounts of peptides and lipids (in 300 μL methanol, 100 μL CHCl3, and 10–20 μL Milli-Q water) and spreading them onto 23 thin glass plates of dimensions 9 mm × 7.5 mm × 0.08 mm (Marienfeld Laboratory Glassware, Lauda-Königshofen, Germany). The peptide-to-lipid ratio (P/L) is given in mol/mol. The plates were dried in air for 1 h, followed by drying under vacuum overnight. The plates were stacked and placed into a hydration chamber with 96% relative humidity at 48 °C for 18–24 h before wrapping the stack in parafilm and plastic foil for the NMR measurements. All solid-state NMR measurements were carried out on a Bruker Avance 500 MHz spectrometer (Bruker Biospin, Karlsruhe, Germany) at 308 K, as previously reported. The oriented membrane samples were placed in the flat-coil probe such that the lipid bilayer normal was aligned parallel to the magnetic field. ^31P-NMR was used to check the quality of the lipid orientation in the samples, using a Hahn echo sequence with phase cycling. The 90° pulse length was 3.9 µs, the echo time was 30 µs, and 17 kHz ^1H SPINAL64 decoupling was used. ^1H-^15N cross-polarization experiments using a CP-MOIST pulse sequence were performed using a double-tuned probe with a low-E flat-coil resonator (3 mm × 9 mm cross-section), employing a ^1H and ^15N radiofrequency field strength of 65 kHz during the cross-polarization and 25 kHz ^1H SPINAL16 [41] decoupling during acquisition. A mixing time of 500 μs was used, and 10,000 to 30,000 scans were accumulated. The acquisition time was 10 ms, and the recycle time was 3 s. The ^15N chemical shift was referenced using the ^1H-NMR signal of water in the sample.

[2] = ANTS/DPX fluorescence vesicle leakage assay; conditions: vesicle leakage of ANTS/DPX in POPC/POPG (1/1) LUVs, P/L = 1:50, 100 µM lipid, 10 min, 30 °C, pH 7.5
Protocol: The ability of the peptides to induce leakage in large unilamellar vesicles (≈120 nm diameter) of POPC/POPG (1/1) was studied using a fluorescence assay using ANTS/DPX, as described previously.
For the leakage experiments, the buffer in which the vesicles were prepared contained the fluorophore ANTS (12.5 mM), the quencher DPX (45 mM), 50 mM NaCl, and 10 mM HEPES (pH 7.5). Liposomes were prepared by co-dissolving POPC/POPG 1/1 (mol/mol) lipids in CHCl3/MeOH (3/1 v/v), together with 10^−2 mol% Rhod-PE, by which the lipid loss during vesicle preparation (extrusion and gel filtration, see below) could be quantified. The peptide-to-lipid ratio (P/L) is given in mol/mol. The lipid mixture was dried under N2(g) and dried under vacuum for 2–4 h. The obtained thin film was then re-suspended in the buffer, which contained the fluorophore and the quencher, by vigorous vortexing, followed by 10 freeze–thaw cycles. Large unilamellar vesicles (LUV) were obtained by 41-fold extrusion (Avanti Mini Extruder; Avanti Polar Lipids, Alabaster, AL, USA) of the liposomes through a Nuclepore polycarbonate membrane (pore size 100 nm, Whatman-GE Healthcare Europe, Freiburg, Germany) at a temperature 20 °C above the lipid phase transition. […]
The leakage of entrapped ANTS was monitored by fluorescence dequenching of ANTS [18]. Fluorescence measurements were performed in a thermostated cuvette with constant stirring at 30 °C in the elution buffer used for gel filtration on a FluoroMax2 spectrofluorimeter (HORIBA Jobin Yvon, Unterhaching, Germany) by setting the ANTS excitation wavelength to 355 nm and its emission wavelength to 510 nm. Peptide stock solutions in water were prepared, and the peptide concentration was calculated from the weighed amount. […] The fluorescence signal was followed for 10 minutes, and after that time, Triton X-100 was added to completely disrupt the vesicles. The level of 0% leakage corresponded to the fluorescence of the vesicles immediately after their addition, while 100% leakage was the fluorescence value obtained after the addition of Triton X-100.
The synergy of the peptides towards vesicle leakage was investigated by pair-wise combinations of latarcins. The leakage was measured for each peptide alone at P/L = 1/100 and for peptide combinations at P/P/L = 1/1/100. The synergy factor, SF, is calculated according to:SF = L(P1 + P2)/[L(P1) + L(P2)].(1)
Here, L(P1) is the leakage of peptide 1 alone, L(P2) is the leakage of peptide 2 alone, and L(P1 + P2) is the leakage for the mixture of the peptides. […] The SF was determined separately for each batch of samples, and then the individual SF values were averaged.

Row | Substance | NMR: orientational state of the helix [1] | helix tilt angle away from the flat surface orientation ([1]; from 15N chemical shift, P/L 1/100) | % Leakage [2]
1 | H-SWKSMAKKLKEYMEKLKQRA-NH2 [Ltc3a] | Slight tilt | 10–20 ° | 20%
2 | H-QAFQTFKPDWNKIRYDAMKMQTSLGQMKKRFNL-OH [Ltc6a] | Aggregated |  | 50% and 46%
3 | H-GLKDKFKSMGEKLKQYIQTWKAKF-NH2 [Ltc4a] |  |  | 20% and 22%
4 | G E TF D K L K E K L K TFYQ K LV E K A ED L K G D L K A K LS-acid [Ltc7] | Surface |  | 50% and 54%
5 | H-GFFGKMKEYFKKFGASFKRRFANLKKRL-NH2 [Ltc5] | Surface |  | 
